Consider one molecule from US20100069316A1, “TREATMENT FOR MULTIPLE MYELOMA” (Ares Trading S.A., priority 2006, published 2010).

The test system of one data set is XG-3 myeloma cell line. The data set is described as follows: Cell cycle measurement (BrdU/PI, S phase), XG-3. The format is cell-based, human. The conditions noted are these: day 3 of culture. The procedure: The cell cycle distribution of the cell lines was assessed by flow cytometry analysis by propidium iodide (PI) and bromodeoxyuridine (BrdU) double-staining. Thirty minutes before stopping the culture, BrdU (10 μM) were added to the cultures and then the cells were collected by centrifugation, washed twice in phosphate buffer saline (PBS) and fixed in 70% ethanol for 20 minutes at room temperature. After two washes with PBS, cells were resuspended in 50 μL of 3N HCl, 0.5% Tween 20 and incubated 20 minutes at 20° C. to denature DNA. The cells were then recovered by centrifugation, resuspended in 250 μL of 10 mM sodium tetraborate to neutralize the reaction, washed twice with PBS, 0.05% Tween 20, and incubated with 20 μL of anti-BrdU-FITC (BD Biosciences). After two additional washes, the cells were resuspended in 500 μL of PBS, 0.05% Tween 20 containing 10 μg/ml PI. The fluorescence of FL1-H (BrdU) and FL2-A (PI) were analyzed on a FACScan flow cytometer using Cell Quest software (Becton Dickinson).
Two myeloma cell lines (XG-3 and XG-12) that are sensitive to compound A (1-(4-{4-[4-(4-chlorophenyl)-pyrimidin-2-ylamino]-benzoyl}-piperazin-1-yl)-ethanone) were selected for the study. To assess the effect of compound A on myeloma cell survival, the percentage apoptotic cells was determined using binding of annexin V to apoptotic cells. The effect of compound A on the cell cycle was assessed by evaluating the percentage of cells in the S phase of the cell cycle by incorporation of BrdU-FITC. Apoptosis, cell cycle and cell numeration were evaluated daily on a four day culture period on the cell lines using the IC10, IC50 and I90 respective doses of compound A.

In data set [1] the test system is non-myeloma bone marrow cells. Briefly: Ex vivo survival of non-myeloma bone marrow cells. Format: cell-based, human. To be noted: bone marrow cells of 10 myeloma patients, 5 days, 1, 3.3, 10 μM. The procedure:
Bone marrow cells from 10 patients with multiple myeloma (5 patients at diagnosis and 5 relapsing patients) were harvested and mononuclear cells isolated by ficoll hypaque centrifugation.
At day 5, cell numbers were counted and the percentage and counts of myeloma cells were determined by FACS staining using an anti-CD138 monoclonal antibody. This made it possible to assay for viable myeloma cells as CD138 is lost on pre-apoptotic myeloma cells (Jourdan, M. et al. (1998) Br. J. Haematol., 100, 637-648). The percentage and count of CD34 hematopoietic progenitors was also determined with an anti-CD34 monoclonal antibody and FACS labeling.
Bone marrow mononuclear cells from 5 patients with newly diagnosed multiple myeloma or from 5 patients with relapsing multiple myeloma were cultured for 5 days with culture medium and 10% fetal calf serum. […] At the end of culture, cells were counted. Viable myeloma cells were determined using FACS labeling with anti-CD138 monoclonal antibody, as well as viable hematopoietic stem cells using an anti-CD34 monoclonal antibody. Results are expressed as the percentage of viable myeloma cells, non-myeloma cells, or CD34 cells compared to the control culture group without inhibitor.

As to `CC(=O)N1CCN(C(=O)c2ccc(Nc3nccc(-c4ccc(Cl)cc4)n3)cc2)CC1` [Compound A, 1-(4-{4-[4-(4-Chloro-phenyl)-pyrimidin-2-ylamino]-benzoyl}-piperazin-1-yl)-ethanone], the “S phase (%) percentage of cells in the S phase” value in the data set on XG-3 myeloma cell line (XG-3, compound A at IC10 concentration) turned out to be 32.1%; with XG-3 myeloma cell line (XG-3, compound A at IC50 concentration) it was 29.2%; with XG-3 myeloma cell line (XG-3, compound A at IC90 concentration), 15.3%. In data set [1], the “survival of other (non-myeloma) bone marrow cells” value is recorded as “without affecting the survival of other bone marrow cells”.
